Test results: ChEMBL document CHEMBL4837233, “Inhibition of BACE1 and Amyloid-β Aggregation by Meroterpenoids from the Mushroom Albatrellus yasudae” (J Nat Prod, 2021)

Experiments:
Beta-secretase 1 = Beta-secretase 1 (Homo sapiens, UniProt P56817); assay: Inhibition of BACE1 (unknown origin) using Rh-EVNNLDAEFK fluorogenic peptide as substrate incubated for 3 hrs by FRET assay
[1] = target: Amyloid-beta precursor protein (Homo sapiens, UniProt P05067); assay: Inhibition of self-induced aggregation amyloid beta (1 to 40) (unknown origin) incubated for 24 hrs by Thioflavin T based fluorometric assay
Sequence of Amyloid-beta precursor protein (P05067 whole entry): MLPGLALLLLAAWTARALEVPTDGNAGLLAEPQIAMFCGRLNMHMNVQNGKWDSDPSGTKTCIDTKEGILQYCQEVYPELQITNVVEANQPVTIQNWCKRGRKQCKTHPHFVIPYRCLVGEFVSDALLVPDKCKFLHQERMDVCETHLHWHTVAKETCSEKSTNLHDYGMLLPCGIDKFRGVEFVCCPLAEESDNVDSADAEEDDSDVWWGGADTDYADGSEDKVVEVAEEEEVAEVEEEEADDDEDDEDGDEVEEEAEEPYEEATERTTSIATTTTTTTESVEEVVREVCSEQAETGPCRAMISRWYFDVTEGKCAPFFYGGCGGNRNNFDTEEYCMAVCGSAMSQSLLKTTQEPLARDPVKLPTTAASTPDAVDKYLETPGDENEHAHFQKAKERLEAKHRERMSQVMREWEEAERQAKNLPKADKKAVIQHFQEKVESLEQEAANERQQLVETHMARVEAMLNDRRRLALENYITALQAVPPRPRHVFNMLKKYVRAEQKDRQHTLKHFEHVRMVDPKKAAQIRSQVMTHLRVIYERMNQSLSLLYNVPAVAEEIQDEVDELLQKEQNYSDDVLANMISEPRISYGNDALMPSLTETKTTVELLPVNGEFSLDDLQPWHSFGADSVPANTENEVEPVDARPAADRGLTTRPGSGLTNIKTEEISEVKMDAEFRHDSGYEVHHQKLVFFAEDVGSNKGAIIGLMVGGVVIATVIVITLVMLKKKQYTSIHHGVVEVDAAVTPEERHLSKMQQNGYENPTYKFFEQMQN

Sequence of Beta-secretase 1 (P56817 whole entry): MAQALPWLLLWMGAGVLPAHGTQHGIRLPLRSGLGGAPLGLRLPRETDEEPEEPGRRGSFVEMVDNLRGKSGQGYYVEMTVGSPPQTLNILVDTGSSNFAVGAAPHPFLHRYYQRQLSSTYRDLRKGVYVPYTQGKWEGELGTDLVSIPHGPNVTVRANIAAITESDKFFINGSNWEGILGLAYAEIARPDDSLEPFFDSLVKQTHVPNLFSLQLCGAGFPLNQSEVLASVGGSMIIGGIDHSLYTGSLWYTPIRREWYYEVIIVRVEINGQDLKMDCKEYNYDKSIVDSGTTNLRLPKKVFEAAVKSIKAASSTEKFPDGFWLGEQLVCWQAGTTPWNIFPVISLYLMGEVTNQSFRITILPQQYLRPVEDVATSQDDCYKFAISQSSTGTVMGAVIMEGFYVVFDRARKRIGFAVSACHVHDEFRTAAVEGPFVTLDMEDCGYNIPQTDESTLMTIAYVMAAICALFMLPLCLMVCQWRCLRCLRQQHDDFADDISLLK

| IC50 (Beta-secretase 1) [µM] | IC50 [1] [µM] | SMILES |
| --- | --- | --- |
| 10.9 | 40.7 | COC(=O)c1c(C)cc(O)c(C/C=C(\C)CCCC2=C/C(=C\C(C)(C)O)OC2=O)c1O |
| 10.5 | 51.4 | C/C(=C\Cc1c(O)cc(C)c(C(=O)O)c1O)CCCC1=C/C(=C\C(C)(C)O)OC1=O |

Second part, the compound before the results:

| SMILES | IC50 (Beta-secretase 1) [µM] | IC50 [1] [µM] |
| --- | --- | --- |
| CC(C)=CCC/C(C)=C/CC/C(C)=C/Cc1c(O)cc(C)cc1O [GRIFOLIN] | 6.1 | – |
| CC(C)=CCC/C(C)=C/CC/C(C)=C/Cc1c(O)cc(C)c(C(=O)O)c1O [GRIFOLIC ACID] | 1.4 | – |
| C/C(=C\Cc1c(O)cc(C)c(C(=O)O)c1O)CC/C=C(\C)CC[C@H](O)C(C)(C)O | 34.4 | 53.3 |
| COC(=O)c1c(C)c(C/C=C(\C)CC/C=C(\C)CCC=C(C)C)c(OC)c(O)c1O | > 100 | 50.3 |
| COc1c(O)c(O)c(C(=O)O)c(C)c1C/C=C(\C)CC/C=C(\C)CCC=C(C)C | 1.6 | 6.6 |
